Source: patent US8779002B2, “Methods for treating a variety of diseases and conditions, and compounds useful therefor” (Salk Institute for Biological Studies, priority 2007, dated 2014)
Like-named read-outs stand apart in the source and are kept apart here.

Columns and labels:
primary cortical neurons = experiment: Trophic factor withdrawal (TFW) assay; assay type: cell-based, rat; settings: Rattus norvegicus, Primary cortical neuron
Procedure: FIG. 1A illustrates the results of a trophic factor withdrawal assay. Primary cortical neurons are prepared from 18-day-old rat embryos, and cultured at low cell density 1×10^6/35 mm dish, in serum containing medium, with different compounds Viability is then assayed 2 days later using a fluorescent live-dead assay (Molecular Probes).
Primary cortical neurons can be prepared from 18-day-old embryos of Sprague-Dawley rats as described (Liu & Schubert, J. Neurochem., 1997, 69:2285-2293 and J. Neurochem., 1998, 71:2322-2329). Briefly, the cerebral cortex is dissected out under an anatomical microscope and is freed of meninges and blood vessels. The cortex is cut into small pieces and is then dissociated by trypsin digestion and passed through a pipette tip. Dissociated neurons are suspended in various media and plated on polylysine-coated 35 mm tissue culture dishes (e.g., 1×10^6 cells/dish). Several different culture conditions can be used as known in the art. Invention compounds can be added to cell culture dishes. Cell survival can be measured 1-2 days after compound administration.
A serum-containing medium can be used which includes a minimal essential medium (Sigma) containing 30 mM glucose, 2 mM glutamine, 1 mM pyruvate, penicillin (100 U/ml), streptomycin (100 μg/ml), and 10% fetal calf serum. At a plating density of 1×10^6 cells/dish, most neurons die after one week of culture in this medium. If plated at a density of 2×10^6 cells/dish, then most neurons survive. The cell density-dependent neuronal survival in this system is most likely dependent on the neurotrophic factors secreted by the neurons, not by the glia. The results are the same when glial proliferation is inhibited by cytosine arabinoside.
The structure-activity relationships of compounds according to the present invention can be determined by measuring trophic factor withdrawal in […] primary cortical neurons. As shown in FIG. 1A-FIG. 1D, compounds are added to low density primary cultures of E18 rat cortical neurons at the time of plating, and cell survival is determined two days later by a variety of methods.

MC-65 cells = experiment: MC65 intracellular amyloid toxicity assay; assay type: cell-based; settings: for EC50: MC65; for Protection against intracellular protein aggregation and toxicity: MC-65 cells, tetracycline removal, MTT 5 days later
Procedure: FIG. 4A illustrates the viability of MC-65 cells upon exposure to the indicated concentrations of compounds, and the degree to which synthesis of the C-terminal fragment of APP is induced by the removal of tetracycline. Cell death was determined 5 days later by the MTT assay and confirmed visually. The data are plotted as percent viable, relative to controls of drug plus un-induced cells.

Amyloid = experiment: Extracellular amyloid toxicity (cell culture); assay type: cell-based
PC12 cells = experiment: Glucose starvation assay; assay type: cell-based; parameters: key: + = positive result or enzyme activation; settings: Cell Culture
Procedure: FIG. 1C illustrates the results of a glucose starvation assay. PC12 cells were starved for glucose plus or minus 20 nM J147; cell viability was then determined 48 hr later using the MTT assay (T. Soucek, R. Cumming, R. Dargusch, P. Maher and D. Schubert, Neuron 39 (2003) 43-56).

Cortical Nerve = experiment: In vitro ischemia, cortical nerve; assay type: cell-based; parameters: key: + = positive result or enzyme activation
Retinal Ganglion Cells = experiment: In vitro ischemia, retinal ganglion cells; assay type: cell-based; parameters: key: + = positive result or enzyme activation
[1] = test system: Schaffer collateral CA1 pyramidal cell synapses in rat hippocampal slices; experiment: LTP induction in hippocampal slices; parameters: key to LTP: + = positive result or enzyme activation
From the text: Hippocampal slices were exposed to J147 during the time indicated by the black bar. The field excitatory postsynaptic potential (fEPSP) slope is expressed as the percentage of the value immediately before the addition of J147.
The effect of J147 is dose-dependent. The hippocampal slices were untreated or exposed to J147 for the time indicated by the black bar, and weak tetanic stimulation was applied at time 0. The fEPSP slope is expressed as the percentage of the value immediately before the application of weak tetanic stimulation. FIG. 3B illustrates the time course of changes in the fEPSP slope.
To compare the data among the groups, the averages of the fEPSP slopes 30-60 min after tetanic stimulation were calculated as an index of LTP magnitude; the results are shown in FIG. 3C. All the data are the mean±SEM […] vs none.

[2] = Toxicology: animal weight or overall health; assay type: in vivo
[3] = Cell Culture (Table 2), read-out: Trophic Factor Withdrawal
[4] = Cell Culture, read-out: Amyloid Toxicity, Intracellular

| Structure (SMILES) | EC50 (primary cortical neurons; [3]) [nM] | EC50 (MC-65 cells; [4]) [nM] | Protection against intracellular protein aggregation and toxicity (MC-65 cells) | EC50 (Amyloid) [nM] | Glucose Starvation (PC12 cells) | In Vitro Ischemia, Cortical Nerve (Cortical Nerve) | In Vitro Ischemia, Retinal Ganglion Cells (Retinal Ganglion Cells) | LTP [1] | Toxicology-no apparent effect on animal weight or overall health ([2]; several mo. (mice)) [ppm food] | EC50 (primary cortical neurons; Trophic factor withdrawal assay, read-out: TFW EC50) [nM] | EC50 (MC-65 cells; Intracellular amyloid toxicity, read-out: MC65 EC50) [nM] | Induction of LTP ([1]; after a weak tetanic stimulation (15 pulses at 100 Hz), fEPSP slope) | Basal synaptic transmission ([1]; fEPSP slope, J147 1 μM) | Toxicology-no apparent effect on animal weight or overall health ([2]; gavage 10 d (mice)) [mg/kg] |
| --- | --- | --- | --- | --- | --- | --- | --- | --- | --- | --- | --- | --- | --- | --- |
| COc1cc(/C=C/c2cc(/C=C/c3ccc(O)c(OC)c3)n(-c3ccccc3)n2)ccc1O [CNB-001] | 500 | 200 | neuroprotective | 500 | + | + | + | + | 500 | – | – | – | – | – |
| COc1cccc(/C=N/N(C(=O)C(F)(F)F)c2ccc(C)cc2C)c1 [Compound J147] | 10 | 3 | neuroprotective | 10 | + | + | + | + | – | 50 | 10 | facilitate the induction of LTP | does not affect basal synaptic transmission | 300 |
